Experimental data as given in paper PMC6930570, “2-Arylidene-1-indandiones as Pleiotropic Agents with Antioxidant and Inhibitory Enzymes Activities” (Molecules, 2019).

Tests used:
soybean lipoxygenase = molecular target: T1, soybean lipoxygenase (Glycine max, UniProt P08170); test: Soybean lipoxygenase inhibition in vitro; type: biochemical; settings: sodium linoleate substrate, no = no action under the experimental conditions; for inhibition at 100 µM: read-out: LOX (% Inhibition 100 µM)
T1 construct: purchased Sigma Chemical, Co. (St. Louis)
T1 sequence (P08170 1-839): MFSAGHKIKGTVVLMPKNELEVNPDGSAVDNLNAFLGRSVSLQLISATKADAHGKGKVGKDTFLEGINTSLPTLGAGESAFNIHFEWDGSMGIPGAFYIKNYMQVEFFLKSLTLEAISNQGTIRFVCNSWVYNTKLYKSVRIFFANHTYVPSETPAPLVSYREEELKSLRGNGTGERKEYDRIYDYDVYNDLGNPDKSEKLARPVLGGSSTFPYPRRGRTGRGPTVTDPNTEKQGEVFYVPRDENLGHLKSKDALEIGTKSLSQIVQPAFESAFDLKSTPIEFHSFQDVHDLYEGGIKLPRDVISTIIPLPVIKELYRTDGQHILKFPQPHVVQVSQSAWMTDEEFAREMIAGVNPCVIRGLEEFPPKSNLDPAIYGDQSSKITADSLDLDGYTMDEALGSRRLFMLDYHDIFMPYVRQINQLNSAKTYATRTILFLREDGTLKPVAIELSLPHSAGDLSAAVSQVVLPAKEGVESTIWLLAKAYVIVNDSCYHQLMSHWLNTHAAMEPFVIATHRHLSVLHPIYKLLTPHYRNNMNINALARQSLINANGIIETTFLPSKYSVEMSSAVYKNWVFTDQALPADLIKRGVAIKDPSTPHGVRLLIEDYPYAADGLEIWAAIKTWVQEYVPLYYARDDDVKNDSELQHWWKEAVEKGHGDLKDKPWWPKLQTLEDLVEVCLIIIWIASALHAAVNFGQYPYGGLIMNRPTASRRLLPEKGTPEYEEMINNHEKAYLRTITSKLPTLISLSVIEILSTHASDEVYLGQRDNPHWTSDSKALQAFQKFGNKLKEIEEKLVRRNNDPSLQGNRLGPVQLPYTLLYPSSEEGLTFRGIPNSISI
Protocol: Thus, we used soybean LOX in our in vitro experiments.
In vitro study was performed as reported previously by our group. Sodium linoleate (0.1 mM) and 0.2 mL of enzyme solution (1/9 × 104 w/v in saline) were used for the incubation of the tested derivatives.

[1] = ABTS+. decolorization assay; type: biochemical; settings: 1 min, no = no action under the experimental conditions
Description: The radical cation ABTS^+• is directly generated through potassium persulfate by oxidation with no participation of an intermediary radical and then the reduction is followed by adding electron-donating antioxidants. In this assay the radical is generated before adding the antioxidant (decolorization assay). […] It seems that lipophilicity influences the activity, since both are presenting high lipophilicity values. […] The radical cation ABTS^+• was generated from an ABTS stock solution in water (7 mM) which was mixed with potassium persulfate (2.45 mM) and left in the dark at room temperature for 12–16 h before use. The results are recorded after 1min of the mixing solutions at 734 nm and compared to the appropriate standard inhibitor Trolox (Table 3).

[2] = tested on: carrageenin-induced rat paw edema; test: Inhibition of the carrageenin-induced rat paw edema (CPE); type: in vivo, Fisher 344 rats; settings: 0.01 mmol/kg body weight, intraperitoneally, 3.5 h after carrageenin; for inhibition in vivo at 10 µmol/kg: Rattus norvegicus, ip, read-out: CPE % (reduction of the rat paw edema)
Description: Carrageenin-induced rat paw edema (CPE) model was used to study the in vivo anti-inflammatory activity of the tested derivatives and the results are presented in Table 3. […] Compounds 2, 7, 8, 10, and 12 presented small differences in their biological activity. The presence of the thienyl group as well as of the furyl leads to higher anti-inflammatory activity (1 and 3) while substitution with a phenyl group leads to two-fold decrease of the activity (28%).
Edema was induced in the right hind paw of Fisher 344 rats (150–200 g) by the intradermal injection of 0.1 mL 2% carrageenin in water. Both sexes were used while females pregnant were excluded. Each group was composed of 6–15 animals. The animals, which have been bred in our laboratory, were housed under standard conditions and received a diet of commercial food pellets and water ad libitum during the maintenance but they were entirely fasted during the experiment period. Our studies were in accordance with recognised guidelines on animal experimentation. (guidelines for the care and use of laboratory animals published by the Greek Government 160/1991, based on EU regulations 86/609). Rats were kept in the Centre of the School of Veterinary Medicine (EL54 BIO42), Aristotle University of Thessaloniki, which is registered by the official state veterinary authorities (presidential degree 56/2013, in harmonization with the European Directive 2010/63/EEC). The experimental protocols were approved by the Animal Ethics Committee of the Prefecture of Central Macedonia (no. 270079/2500). The tested compounds 0.01 mmol/kg body weight were suspended in water, with a few drops of Tween 80 and ground in a mortar before use and were given intraperitoneally simultaneously with the carrageenin injection. The rats were euthanized 3.5 h after carrageenin injection. The difference between the weight of the injected and uninjected paws was calculated for each animal. The change in paw weight was compared with that in control animals (treated with water) and expressed as a percent inhibition of the edema CPE % values […] [58, 59]. Indomethacin in 0.01 mmol/kg (47%). Values CPE % are the mean from two different experiments with a standard error of the mean less than 10% (Table 3).

bovine thrombin = molecular target: T2, bovine thrombin (Bos taurus, UniProt P00735); test: In vitro inhibition of thrombin; type: biochemical; settings: substrate tosyl-Gly-Pro-Arg-pNA, no = no action under the experimental conditions; for inhibition at 100 µM: read-out: TH% 100 µM (thrombin inhibition)
T2 construct: purchased Sigma Chemical, Co. (St. Louis)
Protocol: It is well known that indandione derivatives exert their anticoagulant activity indirectly by inhibiting prothrombin synthesis in the liver. […] Derivatives 1, 2, 5, 8, 9, 10, and 12 were tested in vitro as possible thrombin inhibitors. Among the tested derivatives compound 8 presented 100% inhibition followed by compounds […] and 10.
As a substrate tosyl-Gly-Pro-Arg-pNA acetate salt was used at 1 mM final concentration. Compounds were dissolved at a final concentration of […] in a Tris-buffer (0.05 M Tris, 0.154 M NaCl, ethanol 5%, pH = 8.0). Three minutes after the addition of bovine thrombin (2.5 unit/mg), the reaction was ended by adding 1 mL acetic acid 50%. The absorption of the released p-nitro-aniline was measured at 405 nm (Table 3). Warfarin and Inogatran were used as reference compounds.

Row | inhibition at 100 µM (soybean lipoxygenase) [%] | inhibition at 100 µM (bovine thrombin) [%] | TH% 100 µM (thrombin inhibition) (bovine thrombin) | LOX (% Inhibition 100 µM) (soybean lipoxygenase) | Compound | ABTS+. % 100 µM (decolorization activity) [1] | inhibition in vivo at 10 µmol/kg [2] [%] | CPE % (reduction of the rat paw edema) [2] [%]
1 | 35.7 | 39 | – | – | Cc1ccc(C=C2C(=O)c3ccccc3C2=O)o1 [Compound 3, (Z)-2-((5-methylfuran-2-yl)methylene)-1H-indene-1,3(2H)-dione] | 20% | 50 | –
2 | 67.3 | – | no | – | O=C1C(=Cc2cccc(Oc3ccccc3)c2)C(=O)c2ccccc21 [Compound 7, (Z)-2-(3-phenoxybenzylidene)-1H-indene-1,3(2H)-dione] | 37% | 41 | 41
3 | 3.6 | 100 | – | – | O=C1C(=Cc2ccc(OCc3ccc(Br)cc3)cc2)C(=O)c2ccccc21 [Compound 8, (Z)-2-(4-((4-bromobenzyl)oxy)benzylidene)-1H-indene-1,3(2H)-dione] | 16% | 46 | 46

Second part, the compound before the results:

Row | Compound | inhibition at 100 µM (soybean lipoxygenase) [%] | inhibition at 100 µM (bovine thrombin) [%] | TH% 100 µM (thrombin inhibition) (bovine thrombin) | LOX (% Inhibition 100 µM) (soybean lipoxygenase) | ABTS+. % 100 µM (decolorization activity) [1] | inhibition in vivo at 10 µmol/kg [2] [%] | CPE % (reduction of the rat paw edema) [2] [%]
4 | Cc1ccsc1C=C1C(=O)c2ccccc2C1=O [Compound 2, (Z)-2-((3-methylthiophen-2-yl)methylene)-1H-indene-1,3(2H)-dione] | 45 | – | – | – | 2% | 45 | –
5 | O=C1C(=Cc2ccccc2)C(=O)c2ccccc21 [Compound 4, 2-benzylidene-1H-indene-1,3(2H)-dione] | 35 | – | no | – | 19% | 28 | –
6 | CN(C)c1ccc(/C=C\C=C2C(=O)c3ccccc3C2=O)cc1 [Compound 6, (Z)-2-(3-(4-(dimethylamino)phenyl)allylidene)-1H-indene-1,3(2H)-dione] | 17.7 | 19 | – | – | 22% | – | –
7 | CC(C)(C)c1cc(C=C2C(=O)c3ccccc3C2=O)c(O)c(C(C)(C)C)c1 [Compound 9, (Z)-2-(3,5-di-tert-butyl-2-hydroxybenzylidene)-1H-indene-1,3(2H)-dione] | – | 0 | – | no | no | – | –
8 | CC(C)(C)c1cc(C=C2C(=O)c3ccccc3C2=O)cc(C(C)(C)C)c1O [Compound 10, (Z)-2-(3,5-di-tert-butyl-4-hydroxybenzylidene)-1H-indene-1,3(2H)-dione] | – | 27 | – | no | 39% | 42 | –
9 | O=C1C(=Cc2c[nH]c3ccccc23)C(=O)c2ccccc21 [Compound 12, (Z)-2-((1H-indol-3-yl)methylene)-1H-indene-1,3(2H)-dione] | 58.9 | – | – | – | no | 42 | –
